According to ChEMBL document CHEMBL1150237, “Synthesis of indoleamine 2,3-dioxygenase inhibitory analogues of the sponge alkaloid exiguamine A” (J Med Chem, 2008):
Active and inactive are the calls of the source. The rule behind the calls is not given here.

Legend:
[1] = target: T1, Indoleamine 2,3-dioxygenase 1 (Homo sapiens, UniProt P14902); assay: Inhibition of human recombinant indoleamine 2,3-dioxygenase at =< 500000 nM
Target sequence in this assay (P14902 whole entry, looked up): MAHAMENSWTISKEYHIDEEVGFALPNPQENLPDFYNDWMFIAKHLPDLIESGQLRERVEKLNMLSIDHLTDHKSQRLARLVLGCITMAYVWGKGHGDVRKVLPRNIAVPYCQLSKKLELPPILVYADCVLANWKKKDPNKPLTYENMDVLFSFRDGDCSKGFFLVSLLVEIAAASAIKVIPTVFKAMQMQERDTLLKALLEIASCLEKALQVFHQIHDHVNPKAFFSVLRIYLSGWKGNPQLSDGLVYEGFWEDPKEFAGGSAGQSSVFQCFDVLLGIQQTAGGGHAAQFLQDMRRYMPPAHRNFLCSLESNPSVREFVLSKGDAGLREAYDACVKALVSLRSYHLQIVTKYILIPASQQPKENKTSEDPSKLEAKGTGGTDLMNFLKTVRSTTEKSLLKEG

[2] = target: T1, Indoleamine 2,3-dioxygenase 1; assay: Inhibition of human recombinant indoleamine 2,3-dioxygenase
Target sequence in this assay (P14902 whole entry): as the sequence (P14902 whole entry, looked up) above

Row | Structure (SMILES) | Activity [1] | Ki [2] [nM]
1 | Oc1cccc2[nH]ccc12 | inactive | –
2 | O=C(NCCc1c[nH]c2c1C(=O)C=CC2=O)OCc1ccccc1 | – | 1490
3 | O=C1C=CC(=O)c2[nH]ccc21 | – | 190
4 | NCCc1c[nH]c2c1C(=O)c1c(c(-c3ccccc3)c3ccccc3c1-c1ccccc1)C2=O | inactive | –
